# Laboratory results reported in the NIST ThermoML archive (doi:10.1021/je500050p).
# Numbers after ± are expanded uncertainties.
# Legend:
# [1] = 101.33 kPa, Liquid, Vibrating tube method
# [2] = activity coefficient (dimensionless); of the first substance listed, at infinite dilution; xn = mol fraction of the nth substance listed; settings: 101 kPa, Liquid, Chromatography, x1 = 0
activity coefficient ([2]; 353.15 K),activity coefficient ([2]; 373.15 K),Compound,activity coefficient ([2]; 323.15 K),activity coefficient ([2]; 333.15 K),activity coefficient ([2]; 343.15 K),other results
–,–,CC1(C)[C@@H]2CC[C@@]1(CS(=O)(=O)[O-])C(=O)C2.CCCCCCCCCCCCCC[N+](CCCCCC)(CCCCCC)CCCCCC,–,–,–,mass density ([1]; 298.55 K): 963.8 ± 0.3 kg/m3; mass density ([1]; 313.45 K): 953.4 ± 0.3 kg/m3; mass density ([1]; 323.45 K): 946.1 ± 0.3 kg/m3; mass density ([1]; 333.25 K): 939.1 ± 0.3 kg/m3
–,–,"CCCCCCCCCCCCCC[N+](CCCCCC)(CCCCCC)CCCCCC.C[C@H](O)C(=O)[O-] [N,N,N-trihexyl-1-tetradecanaminium (2S)-2-hydroxypropanoate]",–,–,–,mass density ([1]; 298.55 K): 894.8 ± 0.3 kg/m3; mass density ([1]; 313.45 K): 885.7 ± 0.3 kg/m3; mass density ([1]; 323.45 K): 879.9 ± 0.3 kg/m3; mass density ([1]; 333.25 K): 874.5 ± 0.3 kg/m3
0.03,0.03,CO [methanol] + CCCCCCCCCCCCCC[N+](CCCCCC)(CCCCCC)CCCCCC.C[C@H](O)C(=O)[O-],0.03,–,–,–
–,–,CC1CCCCC1 [methylcyclohexane] + CC1(C)[C@@H]2CC[C@@]1(CS(=O)(=O)[O-])C(=O)C2.CCCCCCCCCCCCCC[N+](CCCCCC)(CCCCCC)CCCCCC,0.75 ± 0.05,1,1.33 ± 0.09,–
0.82 ± 0.05,0.81 ± 0.05,CC1CCCCC1 [methylcyclohexane] + CCCCCCCCCCCCCC[N+](CCCCCC)(CCCCCC)CCCCCC.C[C@H](O)C(=O)[O-],0.86 ± 0.06,–,–,–
–,–,CC1CCCC1 [methylcyclopentane] + CC1(C)[C@@H]2CC[C@@]1(CS(=O)(=O)[O-])C(=O)C2.CCCCCCCCCCCCCC[N+](CCCCCC)(CCCCCC)CCCCCC,0.75 ± 0.05,1,1.33 ± 0.09,–
0.78 ± 0.05,0.77 ± 0.05,CC1CCCC1 [methylcyclopentane] + CCCCCCCCCCCCCC[N+](CCCCCC)(CCCCCC)CCCCCC.C[C@H](O)C(=O)[O-],0.82 ± 0.05,–,–,–
–,–,C[N+](=O)[O-] [nitromethane] + CC1(C)[C@@H]2CC[C@@]1(CS(=O)(=O)[O-])C(=O)C2.CCCCCCCCCCCCCC[N+](CCCCCC)(CCCCCC)CCCCCC,0.34 ± 0.03,0.5 ± 0.1,0.7 ± 0.1,–
–,–,CCCCCCCCC [nonane] + CC1(C)[C@@H]2CC[C@@]1(CS(=O)(=O)[O-])C(=O)C2.CCCCCCCCCCCCCC[N+](CCCCCC)(CCCCCC)CCCCCC,1.5 ± 0.1,2.26 ± 0.15,3.24 ± 0.22,–
1.59 ± 0.11,1.51 ± 0.1,CCCCCCCCC [nonane] + CCCCCCCCCCCCCC[N+](CCCCCC)(CCCCCC)CCCCCC.C[C@H](O)C(=O)[O-],1.67 ± 0.11,–,–,–
–,–,CCCCCCCC [octane] + CC1(C)[C@@H]2CC[C@@]1(CS(=O)(=O)[O-])C(=O)C2.CCCCCCCCCCCCCC[N+](CCCCCC)(CCCCCC)CCCCCC,1.24 ± 0.08,1.81 ± 0.12,2.53 ± 0.17,–
1.31 ± 0.09,1.29 ± 0.08,CCCCCCCC [octane] + CCCCCCCCCCCCCC[N+](CCCCCC)(CCCCCC)CCCCCC.C[C@H](O)C(=O)[O-],1.37 ± 0.09,–,–,–
–,–,CCCC(C)=O [pentan-2-one] + CC1(C)[C@@H]2CC[C@@]1(CS(=O)(=O)[O-])C(=O)C2.CCCCCCCCCCCCCC[N+](CCCCCC)(CCCCCC)CCCCCC,0.52 ± 0.04,0.78 ± 0.05,1.07 ± 0.07,–
0.59 ± 0.04,0.59 ± 0.04,CCCC(C)=O [pentan-2-one] + CCCCCCCCCCCCCC[N+](CCCCCC)(CCCCCC)CCCCCC.C[C@H](O)C(=O)[O-],0.6 ± 0.1,–,–,–
–,–,CCC(=O)CC [pentan-3-one] + CC1(C)[C@@H]2CC[C@@]1(CS(=O)(=O)[O-])C(=O)C2.CCCCCCCCCCCCCC[N+](CCCCCC)(CCCCCC)CCCCCC,0.47 ± 0.04,0.71 ± 0.05,1.03 ± 0.06,–
0.55 ± 0.04,0.57 ± 0.04,CCC(=O)CC [pentan-3-one] + CCCCCCCCCCCCCC[N+](CCCCCC)(CCCCCC)CCCCCC.C[C@H](O)C(=O)[O-],0.55 ± 0.04,–,–,–
–,–,CCCO [propan-1-ol] + CC1(C)[C@@H]2CC[C@@]1(CS(=O)(=O)[O-])C(=O)C2.CCCCCCCCCCCCCC[N+](CCCCCC)(CCCCCC)CCCCCC,0.09 ± 0.03,0.16 ± 0.03,0.26 ± 0.03,–
–,–,CC(C)O [propan-2-ol] + CC1(C)[C@@H]2CC[C@@]1(CS(=O)(=O)[O-])C(=O)C2.CCCCCCCCCCCCCC[N+](CCCCCC)(CCCCCC)CCCCCC,0.12 ± 0.03,0.2,0.32 ± 0.03,–
–,–,c1ccncc1 [pyridine] + CC1(C)[C@@H]2CC[C@@]1(CS(=O)(=O)[O-])C(=O)C2.CCCCCCCCCCCCCC[N+](CCCCCC)(CCCCCC)CCCCCC,0.32 ± 0.03,0.49 ± 0.04,0.68 ± 0.05,–
–,–,ClC(Cl)(Cl)Cl [tetrachloromethane] + CC1(C)[C@@H]2CC[C@@]1(CS(=O)(=O)[O-])C(=O)C2.CCCCCCCCCCCCCC[N+](CCCCCC)(CCCCCC)CCCCCC,0.35 ± 0.03,0.51 ± 0.04,0.75 ± 0.05,–
–,–,c1ccsc1 [thiophene] + CC1(C)[C@@H]2CC[C@@]1(CS(=O)(=O)[O-])C(=O)C2.CCCCCCCCCCCCCC[N+](CCCCCC)(CCCCCC)CCCCCC,0.28 ± 0.03,0.42 ± 0.04,0.56 ± 0.04,–
0.29 ± 0.03,0.3 ± 0.1,c1ccsc1 [thiophene] + CCCCCCCCCCCCCC[N+](CCCCCC)(CCCCCC)CCCCCC.C[C@H](O)C(=O)[O-],0.28 ± 0.03,–,–,–
–,–,Cc1ccccc1 [toluene] + CC1(C)[C@@H]2CC[C@@]1(CS(=O)(=O)[O-])C(=O)C2.CCCCCCCCCCCCCC[N+](CCCCCC)(CCCCCC)CCCCCC,0.41 ± 0.03,0.63 ± 0.04,0.88 ± 0.06,–
–,–,ClC(Cl)Cl [trichloromethane] + CC1(C)[C@@H]2CC[C@@]1(CS(=O)(=O)[O-])C(=O)C2.CCCCCCCCCCCCCC[N+](CCCCCC)(CCCCCC)CCCCCC,0.05,0.09 ± 0.03,0.15 ± 0.03,–
0.04,0.03,ClC(Cl)Cl [trichloromethane] + CCCCCCCCCCCCCC[N+](CCCCCC)(CCCCCC)CCCCCC.C[C@H](O)C(=O)[O-],0.05,–,–,–
–,–,CCN(CC)CC [triethylamine] + CC1(C)[C@@H]2CC[C@@]1(CS(=O)(=O)[O-])C(=O)C2.CCCCCCCCCCCCCC[N+](CCCCCC)(CCCCCC)CCCCCC,0.84 ± 0.05,1.23 ± 0.08,1.55 ± 0.1,–
–,–,CCCCCCCCCCC [undecane] + CC1(C)[C@@H]2CC[C@@]1(CS(=O)(=O)[O-])C(=O)C2.CCCCCCCCCCCCCC[N+](CCCCCC)(CCCCCC)CCCCCC,1.62 ± 0.11,2.84 ± 0.19,4.32 ± 0.29,–
1.81 ± 0.12,1.75 ± 0.12,CCCCCCCCCCC [undecane] + CCCCCCCCCCCCCC[N+](CCCCCC)(CCCCCC)CCCCCC.C[C@H](O)C(=O)[O-],1.67 ± 0.11,–,–,–

Compound,activity coefficient ([2]; 353.15 K),activity coefficient ([2]; 373.15 K),activity coefficient ([2]; 323.15 K),activity coefficient ([2]; 333.15 K),activity coefficient ([2]; 343.15 K),other results
C[N+](=O)[O-] [nitromethane] + CCCCCCCCCCCCCC[N+](CCCCCC)(CCCCCC)CCCCCC.C[C@H](O)C(=O)[O-],0.31 ± 0.03,0.31 ± 0.03,0.32 ± 0.03,–,–,–
c1ccncc1 [pyridine] + CCCCCCCCCCCCCC[N+](CCCCCC)(CCCCCC)CCCCCC.C[C@H](O)C(=O)[O-],0.34 ± 0.03,0.34 ± 0.03,0.34 ± 0.03,–,–,–
ClC(Cl)(Cl)Cl [tetrachloromethane] + CCCCCCCCCCCCCC[N+](CCCCCC)(CCCCCC)CCCCCC.C[C@H](O)C(=O)[O-],0.26 ± 0.03,0.29 ± 0.03,0.24 ± 0.03,–,–,–
Cc1ccccc1 [toluene] + CCCCCCCCCCCCCC[N+](CCCCCC)(CCCCCC)CCCCCC.C[C@H](O)C(=O)[O-],0.46 ± 0.04,0.48 ± 0.04,0.46 ± 0.04,–,–,–
